Data: patent publication US6677460B1, “Aromatic carboxylic acid bicyclic sulfur compounds” (Idemitsu Kosan Company, Limited, priority 1993, dated 2004)

Columns and labels:
corn = assay: Upland soil treatment test (5), phytotoxicity; type: in vivo; settings: dosage 100 g a.i./hectare, 20th day after treatment
Protocol: (§1) 90 Parts by weight of the above carrier and 10 parts by weight of each of Compounds obtained in the above Preparation Examples were uniformly pulverized and mixed to obtain herbicides. Further, for Herbicide Comparative Examples, comparative herbicides were prepared by uniformly pulverizing and mixing 90 parts by weight of the above carrier and 10 parts by weight of each of the following Compounds x, y, A, B and C.
(§2) (5) Biological Test (Upland Soil Treatment Test, Herbicide Examples 10-26 and Comparative Example 9)
(§3) Seeds of weeds such as large crabgrass, barnyard grass, green foxtail, cocklebur, velvetleaf and slender amaranth and seeds of corn, wheat and barley were sown in 1/5,000-are Wagner pots filled with upland soil, and covered with upland soil. Then, a predetermined amount of the herbicide prepared in the above (1) was suspended in water and uniformly sprayed onto the soil surface. Thereafter, the plants were grown in the greenhouse, and on 20th day after the treatment, the herbicide was evaluated for herbicidal efficacy.
(§4) The dosage of each herbicide is indicated as an amount of the active ingredient per hectare. Further, air-dried weight were measured, and herbicidal efficacy and the pytotoxicity to corn are shown on the basis of the ratings described below.

barnyard grass [1] = assay: Upland soil treatment test (3); type: in vivo; settings: 20th day after treatment; note: ranges in brackets are in %
Protocol: as §1
(§5) (3) Biological Test (Upland Soil Treatment Test, Herbicide Examples 3 and 4 and Herbicide Comparative Examples 3 and 4)
as §3, with “barnyardgrass,” for “barnyard grass,”
(§6) The herbicidal efficacy and the phytotoxicity to crops are shown on the basis of the ratings described in (2) Foliar treatment test.

cocklebur [2] = assay: Upland soil treatment test (3); type: in vivo; settings: 20th day after treatment; note: ranges in brackets are in %
Protocol: as §1, §5
as §3, with “barnyardgrass,” for “barnyard grass,”
as §6

green foxtail [3] = assay: Upland soil treatment test (3); type: in vivo; settings: 20th day after treatment; note: ranges in brackets are in %
Protocol: as §1, §5
as §3, with “barnyardgrass,” for “barnyard grass,”
as §6

velvetleaf [4] = assay: Upland soil treatment test (3); type: in vivo; settings: 20th day after treatment; note: ranges in brackets are in %
Protocol: as §1, §5
as §3, with “barnyardgrass,” for “barnyard grass,”
as §6

large crabgrass [5] = assay: Upland soil treatment test (3); type: in vivo; settings: 20th day after treatment; note: ranges in brackets are in %
Protocol: as §1, §5
as §3, with “barnyardgrass,” for “barnyard grass,”
as §6

slender amaranth [6] = assay: Upland soil treatment test (3); type: in vivo; settings: 20th day after treatment; note: ranges in brackets are in %
Protocol: as §1, §5
as §3, with “barnyardgrass,” for “barnyard grass,”
as §6

barnyard grass [7] = assay: Upland soil treatment test (5); type: in vivo; settings: dosage 100 g a.i./hectare, 20th day after treatment; note: ranges in brackets are in %
Protocol: as §1, §2, §3, §4

cocklebur [8] = assay: Upland soil treatment test (5); type: in vivo; settings: dosage 100 g a.i./hectare, 20th day after treatment; note: ranges in brackets are in %
Protocol: as §1, §2, §3, §4

green foxtail [9] = assay: Upland soil treatment test (5); type: in vivo; settings: dosage 100 g a.i./hectare, 20th day after treatment; note: ranges in brackets are in %
Protocol: as §1, §2, §3, §4

velvetleaf [10] = assay: Upland soil treatment test (5); type: in vivo; settings: dosage 100 g a.i./hectare, 20th day after treatment; note: ranges in brackets are in %
Protocol: as §1, §2, §3, §4

large crabgrass [11] = assay: Upland soil treatment test (5); type: in vivo; settings: dosage 100 g a.i./hectare, 20th day after treatment; note: ranges in brackets are in %
Protocol: as §1, §2, §3, §4

slender amaranth [12] = assay: Upland soil treatment test (5); type: in vivo; settings: dosage 100 g a.i./hectare, 20th day after treatment; note: ranges in brackets are in %
Protocol: as §1, §2, §3, §4

barnyard grass [13] = assay: Foliar treatment test (2); type: in vivo; settings: 20th day after treatment; note: ranges in brackets are in %
Protocol: as §1
(§7) (2) Biological Test (Foliar Treatment Test, Herbicide Examples 1 and 2 and Herbicide Comparative Examples 1 and 2)
as §3, with “The seeds were grown in a greenhouse, and at the stage of 1˜2 leaves of these plants,” for “Then,”, “leaf and stalk portions at a rate of 200 liter/10 are.” for “the soil surface.”
(§8) The herbicidal efficacy and phytotoxcity to crops were shown on the basis of the following ratings.
(§9) The ratio of remaining plant weight to non-treated was determined on the basis of the ratio of remaining plant weight to non-treated=(remaining plant weight in treated plot/remaining plant weight in non-treated plot)×100. This is also applicable to biological tests hereinafter.

cocklebur [14] = assay: Foliar treatment test (2); type: in vivo; settings: 20th day after treatment; note: ranges in brackets are in %
Protocol: as §1, §7
as §3, with “The seeds were grown in a greenhouse, and at the stage of 1˜2 leaves of these plants,” for “Then,”, “leaf and stalk portions at a rate of 200 liter/10 are.” for “the soil surface.”
as §8, §9

green foxtail [15] = assay: Foliar treatment test (2); type: in vivo; settings: 20th day after treatment; note: ranges in brackets are in %
Protocol: as §1, §7
as §3, with “The seeds were grown in a greenhouse, and at the stage of 1˜2 leaves of these plants,” for “Then,”, “leaf and stalk portions at a rate of 200 liter/10 are.” for “the soil surface.”
as §8, §9

velvetleaf [16] = assay: Foliar treatment test (2); type: in vivo; settings: 20th day after treatment; note: ranges in brackets are in %
Protocol: as §1, §7
as §3, with “The seeds were grown in a greenhouse, and at the stage of 1˜2 leaves of these plants,” for “Then,”, “leaf and stalk portions at a rate of 200 liter/10 are.” for “the soil surface.”
as §8, §9

large crabgrass [17] = assay: Foliar treatment test (2); type: in vivo; settings: 20th day after treatment; note: ranges in brackets are in %
Protocol: as §1, §7
as §3, with “The seeds were grown in a greenhouse, and at the stage of 1˜2 leaves of these plants,” for “Then,”, “leaf and stalk portions at a rate of 200 liter/10 are.” for “the soil surface.”
as §8, §9

slender amaranth [18] = assay: Foliar treatment test (2); type: in vivo; settings: 20th day after treatment; note: ranges in brackets are in %
Protocol: as §1, §7
as §3, with “The seeds were grown in a greenhouse, and at the stage of 1˜2 leaves of these plants,” for “Then,”, “leaf and stalk portions at a rate of 200 liter/10 are.” for “the soil surface.”
as §8, §9

barnyard grass [19] = assay: Upland soil treatment test (8); type: in vivo; settings: 300 g a.i./hectare, 20th day after spraying; note: ranges in brackets are in %
Protocol: as §1
(§10) (8) Biological Test (Upland Soil Treatment Test, Herbicide Examples 48-52 and Herbicide Comparative Examples 13 and 14)
(§11) Seeds of weeds such as large crabgrass, barnyard brass, green foxtail, cocklebur, velvetleaf and slender amarnth and seeds of corn, wheat and barley were sown in 1/5,000-are Wagner pots filled with upland soil, and covert with upland soil. Then, a predetermined amount of the herbicide prepared in the above (1) was suspended in water and uniformly sprayed onto the soil surface. Thereafter, the plant were grown in the greenhouse, and on the 20th day after the spraying treatment, the herbicide was evaluated for herbicidal efficacy.
as §6

cocklebur [20] = assay: Upland soil treatment test (8); type: in vivo; settings: 300 g a.i./hectare, 20th day after spraying; note: ranges in brackets are in %
Protocol: as §1, §10, §11, §6

green foxtail [21] = assay: Upland soil treatment test (8); type: in vivo; settings: 300 g a.i./hectare, 20th day after spraying; note: ranges in brackets are in %
Protocol: as §1, §10, §11, §6

velvetleaf [22] = assay: Upland soil treatment test (8); type: in vivo; settings: 300 g a.i./hectare, 20th day after spraying; note: ranges in brackets are in %
Protocol: as §1, §10, §11, §6

large crabgrass [23] = assay: Upland soil treatment test (8); type: in vivo; settings: 300 g a.i./hectare, 20th day after spraying; note: ranges in brackets are in %
Protocol: as §1, §10, §11, §6

slender amaranth [24] = assay: Upland soil treatment test (8); type: in vivo; settings: 300 g a.i./hectare, 20th day after spraying; note: ranges in brackets are in %
Protocol: as §1, §10, §11, §6

cocklebur [25] = assay: Foliar treatment test (7); type: in vivo; settings: 300 g a.i./hectare, 20th day after spraying; note: ranges in brackets are in %
Protocol: as §1
(§12) (7) Biological Test (Foliar Treatment Test, Herbicide Examples 43-47 and Comparative Examples 11 and 12)
(§13) Seeds of weeds such as large crabgrass, barnyardgrass, green foxtail, cocklebur, velvetleaf and slender amaranth and seeds of corn, wheat and barley were sown in 1/5,000-are Wagner pots filled with upland soil, and covered with upland soil. The seeds were grown in a greenhouse, and at the stage of 1 to 2 leaves of these plants, a predetermined amount of the herbicide prepared in the above (1) was suspended in water and uniformly sprayed onto leaf and stalk portions at a rate of 200 liter/10 ares. Thereafter, the plants were grown in the greenhouse, and on the 20th day after the spraying treatment, the herbicide was evaluated for herbicidal efficacy.
as §8, §9

barnyardgrass = assay: Foliar treatment test (7); type: in vivo; settings: 300 g a.i./hectare, 20th day after spraying; note: ranges in brackets are in %
Protocol: as §1, §12, §13, §8, §9

green foxtail [26] = assay: Foliar treatment test (7); type: in vivo; settings: 300 g a.i./hectare, 20th day after spraying; note: ranges in brackets are in %
Protocol: as §1, §12, §13, §8, §9

velvetleaf [27] = assay: Foliar treatment test (7); type: in vivo; settings: 300 g a.i./hectare, 20th day after spraying; note: ranges in brackets are in %
Protocol: as §1, §12, §13, §8, §9

large crabgrass [28] = assay: Foliar treatment test (7); type: in vivo; settings: 300 g a.i./hectare, 20th day after spraying; note: ranges in brackets are in %
Protocol: as §1, §12, §13, §8, §9

slender amaranth [29] = assay: Foliar treatment test (7); type: in vivo; settings: 300 g a.i./hectare, 20th day after spraying; note: ranges in brackets are in %
Protocol: as §1, §12, §13, §8, §9

CCn1ncc(C(=O)c2cc(C)c3c(c2C)C(C)(C)CCS3(=O)=O)c1O [Compound 1, 4,4,5,8-tetramethyl-6-(1-ethyl-5-hydroxypyrazol-4-yl)carbonyl-thiochroman-1,1-dioxide]
melting point: 208.8 to 209.3 °C | Phyto-toxicity to corn (corn): 0 (100) | Herbicidal Efficacy barnyard grass (barnyard grass [1]; dosage 3 g a.i./are): 5 (0) | Herbicidal Efficacy barnyard grass (barnyard grass [1]; dosage 10 g a.i./are): 5 (0) | Herbicidal Efficacy cocklebur (cocklebur [2]; dosage 3 g a.i./are): 5 (0) | Herbicidal Efficacy cocklebur (cocklebur [2]; dosage 10 g a.i./are): 5 (0) | Herbicidal Efficacy green foxtail (green foxtail [3]; dosage 3 g a.i./are): 5 (0) | Herbicidal Efficacy green foxtail (green foxtail [3]; dosage 10 g a.i./are): 5 (0) | Herbicidal Efficacy velvetleaf (velvetleaf [4]; dosage 3 g a.i./are): 5 (0) | Herbicidal Efficacy velvetleaf (velvetleaf [4]; dosage 10 g a.i./are): 5 (0) | Herbicidal Efficacy large crabgrass (large crabgrass [5]; dosage 3 g a.i./are): 5 (0) | Herbicidal Efficacy large crabgrass (large crabgrass [5]; dosage 10 g a.i./are): 5 (0) | Herbicidal Efficacy slender amaranth (slender amaranth [6]; dosage 3 g a.i./are): 5 (0) | Herbicidal Efficacy slender amaranth (slender amaranth [6]; dosage 10 g a.i./are): 5 (0) | Herbicidal Efficacy barnyard grass (barnyard grass [7]): 5 (0) | Herbicidal Efficacy cocklebur (cocklebur [8]): 5 (0) | Herbicidal Efficacy green foxtail (green foxtail [9]): 5 (0) | Herbicidal Efficacy velvetleaf (velvetleaf [10]): 5 (0) | Herbicidal Efficacy large crabgrass (large crabgrass [11]): 5 (0) | Herbicidal Efficacy slender amaranth (slender amaranth [12]): 5 (0) | Herbicidal Efficacy barnyard grass (barnyard grass [13]; dosage 3 g a.i./are): 5 (0) | Herbicidal Efficacy barnyard grass (barnyard grass [13]; dosage 10 g a.i./are): 5 (0) | Herbicidal Efficacy cocklebur (cocklebur [14]; dosage 3 g a.i./are): 5 (0) | Herbicidal Efficacy cocklebur (cocklebur [14]; dosage 10 g a.i./are): 5 (0) | Herbicidal Efficacy green foxtail (green foxtail [15]; dosage 3 g a.i./are): 5 (0) | Herbicidal Efficacy green foxtail (green foxtail [15]; dosage 10 g a.i./are): 5 (0) | Herbicidal Efficacy velvetleaf (velvetleaf [16]; dosage 3 g a.i./are): 5 (0) | Herbicidal Efficacy velvetleaf (velvetleaf [16]; dosage 10 g a.i./are): 5 (0) | Herbicidal Efficacy large crabgrass (large crabgrass [17]; dosage 3 g a.i./are): 5 (0) | Herbicidal Efficacy large crabgrass (large crabgrass [17]; dosage 10 g a.i./are): 5 (0) | Herbicidal Efficacy slender amaranth (slender amaranth [18]; dosage 3 g a.i./are): 5 (0) | Herbicidal Efficacy slender amaranth (slender amaranth [18]; dosage 10 g a.i./are): 5 (0)

CCn1ncc(C(=O)c2cc(C)c3c(c2C)CCCS3)c1O [Compound 47-2, 5,8-dimethyl-6-(1-ethyl-5-hydroxypyrazol-4-yl)carbonylthiochroman]
Herbicidal Efficacy barnyard grass (barnyard grass [19]): 5 (0) | Herbicidal Efficacy cocklebur (cocklebur [20]): 0 (81-100) | Herbicidal Efficacy green foxtail (green foxtail [21]): 4 (1-20) | Herbicidal Efficacy velvetleaf (velvetleaf [22]): 5 (0) | Herbicidal Efficacy large crabgrass (large crabgrass [23]): 1 (61-80) | Herbicidal Efficacy slender amaranth (slender amaranth [24]): 5 (0) | Herbicidal Efficacy cocklebur (cocklebur [25]): 5 (0) | Herbicidal Efficacy barnyard grass (barnyardgrass): 2 (41-60) | Herbicidal Efficacy green foxtail (green foxtail [26]): 5 (0) | Herbicidal Efficacy velvetleaf (velvetleaf [27]): 5 (0) | Herbicidal Efficacy large crabgrass (large crabgrass [28]): 5 (0) | Herbicidal Efficacy slender amaranth (slender amaranth [29]): 5 (0)
